According to ChEMBL document CHEMBL1201862, “PubChem BioAssay data set” (2004):
Active and inactive are the calls of the source.

How the values were obtained:
[1] = molecular target: Dual specificity protein phosphatase 3 (Homo sapiens, UniProt P51452); assay: VHR phosphatase inhibition, dose response, selectivity assay for STEP inhibitor project, biochemical (AID 602374); type: functional; conditions: read-out: IC50_Mean
[2] = molecular target: Tyrosine-protein phosphatase non-receptor type 5 (Homo sapiens, UniProt P54829); assay: PTPN5 enzyme inhibition – biochemical, fluorescence intensity, uHTS hits, confirmation (AID 602372); type: functional; conditions: read-out: IC50_Mean
[3] = molecular target: Tyrosine-protein phosphatase non-receptor type 11 (Homo sapiens, UniProt Q06124); assay: PTPN11 enzyme inhibitors – biochemical, selectivity assay for STEP inhibitor project, dose response (AID 602367); type: functional; conditions: read-out: IC50_Mean
[4] = molecular target: T1, Tyrosine-protein phosphatase non-receptor type 22 (Homo sapiens, UniProt Q9Y2R2); assay: lymphoid phosphatase LYP inhibitors – biochemical, selectivity assay for STEP inhibitor project, dose response (AID 624241); type: functional
T1 sequence (Q9Y2R2 whole entry): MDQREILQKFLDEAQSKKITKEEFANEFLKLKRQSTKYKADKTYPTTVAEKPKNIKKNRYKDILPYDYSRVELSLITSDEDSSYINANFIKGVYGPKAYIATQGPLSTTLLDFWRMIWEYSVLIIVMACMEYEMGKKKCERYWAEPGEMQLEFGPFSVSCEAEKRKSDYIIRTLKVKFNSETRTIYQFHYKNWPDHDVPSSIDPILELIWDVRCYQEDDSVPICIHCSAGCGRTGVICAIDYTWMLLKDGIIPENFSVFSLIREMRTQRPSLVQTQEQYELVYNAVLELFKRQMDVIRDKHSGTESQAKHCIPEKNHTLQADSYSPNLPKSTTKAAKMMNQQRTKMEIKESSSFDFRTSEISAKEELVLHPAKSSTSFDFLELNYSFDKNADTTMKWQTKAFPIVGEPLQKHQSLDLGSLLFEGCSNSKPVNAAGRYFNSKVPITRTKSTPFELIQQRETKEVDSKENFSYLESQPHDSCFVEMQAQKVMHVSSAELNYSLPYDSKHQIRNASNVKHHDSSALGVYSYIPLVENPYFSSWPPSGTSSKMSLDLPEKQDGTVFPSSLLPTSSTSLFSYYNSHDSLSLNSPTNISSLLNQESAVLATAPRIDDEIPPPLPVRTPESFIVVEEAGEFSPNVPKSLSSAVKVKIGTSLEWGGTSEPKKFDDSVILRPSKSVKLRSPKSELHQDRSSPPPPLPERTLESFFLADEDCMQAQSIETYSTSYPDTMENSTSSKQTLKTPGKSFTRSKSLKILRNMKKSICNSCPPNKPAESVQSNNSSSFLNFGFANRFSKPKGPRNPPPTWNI

[5] = molecular target: T2, Nuclear receptor subfamily 0 group B member 1 (Homo sapiens, UniProt P51843); type: functional, cell-based;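 further: HEK293T cells transfected with SF-1 and DAX-1 plus StAR promoter luciferase reporter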
T2 sequence (P51843 whole entry): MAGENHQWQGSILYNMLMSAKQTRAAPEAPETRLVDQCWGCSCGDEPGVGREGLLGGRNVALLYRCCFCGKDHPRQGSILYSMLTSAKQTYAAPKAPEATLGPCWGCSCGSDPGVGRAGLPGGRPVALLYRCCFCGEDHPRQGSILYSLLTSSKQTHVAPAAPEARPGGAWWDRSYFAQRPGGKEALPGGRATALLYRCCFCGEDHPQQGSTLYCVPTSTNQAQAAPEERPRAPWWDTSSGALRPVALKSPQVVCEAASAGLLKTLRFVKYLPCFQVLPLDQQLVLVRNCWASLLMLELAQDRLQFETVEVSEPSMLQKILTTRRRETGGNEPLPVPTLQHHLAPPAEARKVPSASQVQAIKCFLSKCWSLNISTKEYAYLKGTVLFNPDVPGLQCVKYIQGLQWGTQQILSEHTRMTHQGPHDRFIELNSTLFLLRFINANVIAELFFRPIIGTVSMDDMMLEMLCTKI

cells [6] = type: functional, cell-based
[7] = molecular target: Ras and Rab interactor 1/Tyrosine-protein kinase ABL1 (Homo sapiens, UniProt P00519+Q13671); type: functional;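 further: biochemical TR-FRET dose-response test measuring inhibition of binding between Rin1 and Abl proteins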
Beta-galactosidase = Beta-galactosidase (Escherichia coli, UniProt Q8VNN2); assay: Dose response counterscreen for EBI2 assay utilizing the enzyme, b-galactosidase.; type: functional
[8] = molecular target: E3 ubiquitin-protein ligase Mdm2 (Homo sapiens, UniProt Q00987); assay: MDM2-luc reporter signal enhancers, multi-concentration potency testing, MDM2 ubiquitin-protein ligase inhibitor program, whole-cell format, luminescence detection, 384-well microplate (AID 1394); type: functional;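 further: MDM2 E3 inhibitors raise luminescence so EC50 is for signal enhancement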
Melanocortin receptor 4 = Melanocortin receptor 4 (Homo sapiens, UniProt P32245); type: functional, cell-based;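 further: Cell-based assay with luminescence read-out, confirmatory dose-response testing for agonist activity of biased ligands at MC4R; human U2OS cells with tagged receptor and beta-arrestin; potency of agonists that increase receptor coupling to beta-arrestin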
[9] = molecular target: Oxysterols receptor LXR-beta (Homo sapiens, UniProt P55055); type: functional, cell-based;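 further: Cell-based luminescence dose-response assay of agonist activity at LXR, run as a confirmatory counterscreen to a daf-12 agonist screen; HEK293 cells with Gal4-LXR fusion and GAL4-driven luciferase reporter; agonist potency from rising luciferase signal of a Gal4-LXR reporter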
cells [10] = assay: cells
cells [11] = type: functional, cell-based; remark: listed apart in the source
cells [12] = type: functional, cell-based; remark: listed apart in the source
[13] = molecular target: T3, Trace amine-associated receptor 1 (Homo sapiens, UniProt Q96RJ0); assay: Counterscreen for agonists of the human trace amine associated receptor 1 (hTAAR1): Fluorescence-based cell-based high throughput dose response assay to identify hTAAR1 agonist that also desensitize TAAR1 receptor response.; type: functional
T3 sequence (Q96RJ0 whole entry): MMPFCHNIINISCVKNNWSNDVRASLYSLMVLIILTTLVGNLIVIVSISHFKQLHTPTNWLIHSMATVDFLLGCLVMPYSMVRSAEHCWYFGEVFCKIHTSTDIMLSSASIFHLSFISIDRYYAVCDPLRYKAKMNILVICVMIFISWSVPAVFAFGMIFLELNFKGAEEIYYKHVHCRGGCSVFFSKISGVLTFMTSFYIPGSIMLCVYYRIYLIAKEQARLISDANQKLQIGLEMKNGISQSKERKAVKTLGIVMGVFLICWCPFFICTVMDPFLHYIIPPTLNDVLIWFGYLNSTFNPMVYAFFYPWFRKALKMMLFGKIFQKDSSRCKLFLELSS

[14] = molecular target: T3, Trace amine-associated receptor 1; assay: Fluorescence-based cell-based high throughput dose response assay to identify agonists of the human trace amine associated receptor 1 (TAAR1).; type: functional
HeLa = assay: viability loss in HeLa cells – cell-based, ATP luminescence, cherry-pick samples, cytotoxicity control, dose response (AID 687004); type: functional; conditions: Homo sapiens
[15] = anti-trypanosomal activity in BESM host cells – imaging, CA-I/72 strain, bovine embryo skeletal muscle, dry powder, dose response (AID 651885); type: functional, cell-based
[16] = reduced cellular PGC1a acetyl-lysine signal – cell-based, cherry-picked samples, dose response (AID 720514); type: functional;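 further: potency may reflect raised or lowered acetylation signal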

Chain of Tyrosine-protein phosphatase non-receptor type 5 (P54829 whole entry): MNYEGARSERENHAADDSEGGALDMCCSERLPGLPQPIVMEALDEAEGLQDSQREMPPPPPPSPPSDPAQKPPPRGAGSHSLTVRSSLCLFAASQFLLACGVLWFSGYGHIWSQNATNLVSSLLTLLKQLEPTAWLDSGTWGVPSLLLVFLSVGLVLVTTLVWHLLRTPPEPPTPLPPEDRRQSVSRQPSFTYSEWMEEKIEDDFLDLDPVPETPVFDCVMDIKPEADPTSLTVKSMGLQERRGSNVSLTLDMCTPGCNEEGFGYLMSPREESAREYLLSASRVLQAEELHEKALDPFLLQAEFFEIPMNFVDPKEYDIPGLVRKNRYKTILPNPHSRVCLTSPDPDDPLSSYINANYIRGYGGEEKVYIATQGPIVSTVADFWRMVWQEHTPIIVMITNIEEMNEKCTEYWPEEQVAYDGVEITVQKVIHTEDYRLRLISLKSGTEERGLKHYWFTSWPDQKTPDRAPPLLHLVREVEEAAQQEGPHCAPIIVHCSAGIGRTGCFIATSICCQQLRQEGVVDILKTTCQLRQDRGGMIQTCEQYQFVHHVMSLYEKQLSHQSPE
Chain of Beta-galactosidase (Q8VNN2 whole entry): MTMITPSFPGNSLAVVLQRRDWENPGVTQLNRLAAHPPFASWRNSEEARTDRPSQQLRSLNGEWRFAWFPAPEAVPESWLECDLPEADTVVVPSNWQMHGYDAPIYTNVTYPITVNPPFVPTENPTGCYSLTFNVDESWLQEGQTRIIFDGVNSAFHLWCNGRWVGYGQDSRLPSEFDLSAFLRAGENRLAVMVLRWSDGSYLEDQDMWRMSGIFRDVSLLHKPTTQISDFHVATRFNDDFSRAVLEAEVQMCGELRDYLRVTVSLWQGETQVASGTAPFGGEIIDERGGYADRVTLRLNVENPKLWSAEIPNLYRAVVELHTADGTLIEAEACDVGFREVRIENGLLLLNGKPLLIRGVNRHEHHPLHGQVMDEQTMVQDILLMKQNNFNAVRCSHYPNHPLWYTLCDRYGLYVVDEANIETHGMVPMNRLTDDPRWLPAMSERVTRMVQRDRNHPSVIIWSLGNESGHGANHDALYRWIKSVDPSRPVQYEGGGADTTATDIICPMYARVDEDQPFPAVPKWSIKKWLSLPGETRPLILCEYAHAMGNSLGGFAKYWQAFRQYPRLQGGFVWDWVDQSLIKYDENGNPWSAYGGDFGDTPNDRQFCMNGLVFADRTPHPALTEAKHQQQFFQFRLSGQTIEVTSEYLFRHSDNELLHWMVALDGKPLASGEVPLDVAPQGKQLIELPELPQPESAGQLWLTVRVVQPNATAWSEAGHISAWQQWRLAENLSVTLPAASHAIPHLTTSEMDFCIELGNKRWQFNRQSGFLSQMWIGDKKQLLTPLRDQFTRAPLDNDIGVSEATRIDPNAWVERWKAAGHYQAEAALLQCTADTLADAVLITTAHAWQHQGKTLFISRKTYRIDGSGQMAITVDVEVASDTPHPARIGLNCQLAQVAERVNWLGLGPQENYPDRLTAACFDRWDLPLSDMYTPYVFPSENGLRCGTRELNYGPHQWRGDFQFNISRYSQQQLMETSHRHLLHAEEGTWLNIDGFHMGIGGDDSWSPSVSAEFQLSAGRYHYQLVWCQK
Chain of E3 ubiquitin-protein ligase Mdm2 (Q00987 whole entry): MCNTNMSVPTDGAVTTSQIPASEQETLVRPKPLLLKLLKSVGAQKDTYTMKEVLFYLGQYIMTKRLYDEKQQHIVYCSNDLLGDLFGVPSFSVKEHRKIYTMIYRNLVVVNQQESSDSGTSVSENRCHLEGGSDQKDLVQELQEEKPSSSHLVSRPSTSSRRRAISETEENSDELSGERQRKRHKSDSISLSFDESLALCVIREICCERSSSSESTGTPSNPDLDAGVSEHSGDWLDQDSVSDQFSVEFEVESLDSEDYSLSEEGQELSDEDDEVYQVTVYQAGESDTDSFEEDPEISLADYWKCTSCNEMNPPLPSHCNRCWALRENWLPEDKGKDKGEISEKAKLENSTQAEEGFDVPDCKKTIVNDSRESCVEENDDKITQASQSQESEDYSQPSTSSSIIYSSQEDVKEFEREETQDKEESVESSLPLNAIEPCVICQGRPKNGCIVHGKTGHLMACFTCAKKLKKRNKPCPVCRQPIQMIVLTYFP
Chain of Dual specificity protein phosphatase 3 (P51452 whole entry): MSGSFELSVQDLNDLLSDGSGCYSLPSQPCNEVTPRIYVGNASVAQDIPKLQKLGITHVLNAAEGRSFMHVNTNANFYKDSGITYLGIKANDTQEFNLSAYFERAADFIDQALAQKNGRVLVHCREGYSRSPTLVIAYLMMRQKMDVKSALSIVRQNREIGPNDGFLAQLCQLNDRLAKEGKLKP
Chain of Melanocortin receptor 4 (P32245 whole entry, the tested form may be a part): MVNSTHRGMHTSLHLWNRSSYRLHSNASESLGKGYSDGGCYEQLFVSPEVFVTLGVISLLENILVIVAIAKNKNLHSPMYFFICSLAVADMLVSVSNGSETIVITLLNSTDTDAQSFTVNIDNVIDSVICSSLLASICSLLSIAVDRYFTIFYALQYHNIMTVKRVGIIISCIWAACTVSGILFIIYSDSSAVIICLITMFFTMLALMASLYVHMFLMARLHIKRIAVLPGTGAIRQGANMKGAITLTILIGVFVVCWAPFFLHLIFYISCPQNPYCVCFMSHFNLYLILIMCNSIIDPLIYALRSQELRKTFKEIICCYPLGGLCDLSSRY
Chain of Ras and Rab interactor 1/Tyrosine-protein kinase ABL1 (P00519 whole entry): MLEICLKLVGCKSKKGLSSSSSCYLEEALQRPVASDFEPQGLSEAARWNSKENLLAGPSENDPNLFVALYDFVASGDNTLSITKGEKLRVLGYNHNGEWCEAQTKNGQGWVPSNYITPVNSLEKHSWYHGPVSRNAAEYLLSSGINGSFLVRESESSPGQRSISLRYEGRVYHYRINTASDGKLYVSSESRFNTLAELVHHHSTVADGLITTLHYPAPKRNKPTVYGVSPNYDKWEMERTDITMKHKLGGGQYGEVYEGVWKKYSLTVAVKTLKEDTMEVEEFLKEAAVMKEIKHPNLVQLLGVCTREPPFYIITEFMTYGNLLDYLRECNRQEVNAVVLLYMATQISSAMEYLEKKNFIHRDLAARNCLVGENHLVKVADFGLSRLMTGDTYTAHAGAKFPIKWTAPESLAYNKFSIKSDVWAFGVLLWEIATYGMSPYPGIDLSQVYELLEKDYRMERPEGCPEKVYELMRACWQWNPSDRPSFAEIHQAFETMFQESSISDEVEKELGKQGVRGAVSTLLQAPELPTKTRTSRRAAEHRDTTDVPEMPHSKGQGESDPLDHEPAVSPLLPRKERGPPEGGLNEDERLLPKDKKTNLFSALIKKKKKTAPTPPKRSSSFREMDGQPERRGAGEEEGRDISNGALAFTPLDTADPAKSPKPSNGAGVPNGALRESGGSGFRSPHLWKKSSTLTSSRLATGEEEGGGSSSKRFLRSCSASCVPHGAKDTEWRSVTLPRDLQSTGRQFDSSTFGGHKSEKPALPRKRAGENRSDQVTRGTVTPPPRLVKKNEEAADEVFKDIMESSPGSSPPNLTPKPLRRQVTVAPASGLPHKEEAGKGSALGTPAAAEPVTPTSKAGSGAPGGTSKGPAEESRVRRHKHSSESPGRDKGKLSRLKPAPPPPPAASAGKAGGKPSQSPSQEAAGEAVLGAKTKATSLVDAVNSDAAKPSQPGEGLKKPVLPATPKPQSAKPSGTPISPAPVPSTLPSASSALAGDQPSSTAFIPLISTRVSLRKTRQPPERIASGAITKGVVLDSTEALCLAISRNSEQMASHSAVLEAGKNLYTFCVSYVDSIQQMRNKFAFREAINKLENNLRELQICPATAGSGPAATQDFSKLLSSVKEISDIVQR
Chain of Ras and Rab interactor 1/Tyrosine-protein kinase ABL1 (Q13671 whole entry): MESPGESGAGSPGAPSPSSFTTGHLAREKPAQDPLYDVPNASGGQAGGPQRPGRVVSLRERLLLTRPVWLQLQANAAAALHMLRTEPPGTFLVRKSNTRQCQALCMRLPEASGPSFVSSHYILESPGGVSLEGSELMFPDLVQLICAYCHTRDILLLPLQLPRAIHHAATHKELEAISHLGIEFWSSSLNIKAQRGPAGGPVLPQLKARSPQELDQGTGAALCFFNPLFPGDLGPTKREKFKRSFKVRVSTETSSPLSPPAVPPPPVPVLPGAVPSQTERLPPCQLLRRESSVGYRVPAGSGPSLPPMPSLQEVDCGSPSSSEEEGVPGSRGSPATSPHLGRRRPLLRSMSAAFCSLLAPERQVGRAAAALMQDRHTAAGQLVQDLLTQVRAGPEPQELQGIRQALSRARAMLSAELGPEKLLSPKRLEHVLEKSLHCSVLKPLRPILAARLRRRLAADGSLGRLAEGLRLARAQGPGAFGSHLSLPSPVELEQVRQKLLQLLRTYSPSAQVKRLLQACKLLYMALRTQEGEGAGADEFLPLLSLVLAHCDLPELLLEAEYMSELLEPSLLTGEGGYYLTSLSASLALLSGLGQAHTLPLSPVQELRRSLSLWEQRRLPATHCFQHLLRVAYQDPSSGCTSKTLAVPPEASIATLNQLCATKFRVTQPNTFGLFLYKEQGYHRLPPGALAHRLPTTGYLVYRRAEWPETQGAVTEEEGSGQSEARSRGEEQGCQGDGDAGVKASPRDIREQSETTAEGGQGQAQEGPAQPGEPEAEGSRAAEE
Chain of Oxysterols receptor LXR-beta (P55055 whole entry, the tested form may be a part): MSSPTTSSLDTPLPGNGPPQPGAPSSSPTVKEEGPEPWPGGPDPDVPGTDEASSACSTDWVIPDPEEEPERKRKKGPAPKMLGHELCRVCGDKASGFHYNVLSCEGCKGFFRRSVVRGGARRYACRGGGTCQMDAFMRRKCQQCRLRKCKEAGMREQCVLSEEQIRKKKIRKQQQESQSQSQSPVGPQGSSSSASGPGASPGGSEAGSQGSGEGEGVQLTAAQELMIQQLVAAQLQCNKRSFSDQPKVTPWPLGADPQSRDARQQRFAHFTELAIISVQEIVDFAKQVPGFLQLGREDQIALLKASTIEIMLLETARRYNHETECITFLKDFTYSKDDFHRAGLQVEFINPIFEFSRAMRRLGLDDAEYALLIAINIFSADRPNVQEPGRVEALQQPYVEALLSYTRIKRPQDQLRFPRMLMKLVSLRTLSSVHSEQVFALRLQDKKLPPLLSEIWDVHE

Q: Which results are given for `O=C(NN=Cc1ccccc1O)c1cccc([N+](=O)[O-])c1`?
A: IC50 [1]: 3.13 µM (active); IC50 [2]: 8.95 µM (active); IC50 [3]: 2.39 µM (active); IC50 [4]: > 100 µM (inactive)

Q: For `COc1ccc(-c2cc(NC=O)c3ncc(-c4ccc(OC)c(OC)c4)n3c2)c(OC)c1`, which IC50 [5] is on record?
A: Its IC50 is > 67.6 µM (inactive).

Q: And the IC50 (cells [6])?
A: Its IC50 is > 67.6 µM (inactive).

Q: What does the source list for `OC[C@@H]1CN(Cc2ccc(Cl)cc2)C[C@H](n2cnc3c(NC4CC4)ncnc32)O1`?
A: IC50 [7]: 37.2 µM (inactive); IC50 (Beta-galactosidase): > 80 µM (inactive)

Q: Which EC50 [8] does the source give for `Clc1ccccc1/C=N/NC1=Nc2cccc3cccc1c23` here?
A: Its EC50 is 10.6 µM (not active).

Q: What about the EC50 (Melanocortin receptor 4) of the same compound?
A: Its EC50 is > 89.3 µM (inactive).

Q: What about the EC50 [9] of the same compound?
A: The EC50 was > 67.6 µM (inactive).

Q: What about the EC50 (cells [10]) of the same compound?
A: The EC50 was > 67.6 µM (inactive).

Q: Which results are given for `Cc1ccccc1C(=O)N[C@H](C(=O)N1CCC[C@H]1C(=O)NCCc1ccccc1Cl)C(C)C`?
A: EC50 (cells [11]): > 29.9 µM (inactive); IC50 (cells [12]): > 3.32 µM (active); IC50 [13]: 3.15 µM (active); EC50 [14]: 1.64 µM (active)

Q: For `O=C(C1CCOCC1)N1C[C@H]2[C@@H](c3ccccc31)[C@@H](CO)N2Cc1ccccc1Cl`, which AC50 (HeLa) is on record?
A: Its AC50 is > 52 µM (inactive).

Q: For `Cc1ccc(N2CCN(C(CCc3ccccc3)C(=O)Nc3c(C)cccc3C)CC2)cc1` (stereo not given), which AC50 (HeLa) is on record?
A: The AC50 was > 52 µM (inactive).

Q: With `C[C@@H]1CN([C@@H](C)CO)C(=O)c2cc(Br)cnc2O[C@H]1CN(C)Cc1ccc2c(c1)OCO2` as the compound, how does the IC50 [15] read?
A: The IC50 was > 20 µM (inactive).

Q: Which AC50 [16] does the source give for `COc1ccc(-c2ccc([C@@H]3[C@@H]4CN(Cc5ccccn5)C[C@H]3N4)cc2)cc1` here?
A: Its AC50 is 28.7 µM (active).
